{"source": "patent US20260191194A1", "about": "“OXABICYCLOALKANE COMPOUNDS, PREPARATION METHOD THEREFOR, AND HERBICIDAL COMPOSITION AND USE THEREOF” (QINGDAO KINGAGROOT CHEMICAL COMPOUND CO., LTD., priority 2022, published 2026)", "format_in_all_cases": "in vivo", "key": {"[1]": {"test_system": "Soliva anthemifolia", "test": "Activity test of compositions, early post-emergence foliage spray (F-EP)", "conditions": "21 days after treatment", "description": "(§1) The required active ingredient B was purchased from a reagent company or synthesized by a known method. The technical materials were all dissolved with acetone solvents and diluted with an aqueous solution of 0.1% Tween 80 emulsifier, which were to be used immediately after dilution.\n(§2) Weeds were cultivated by a pot culture method. […] Weed seeds with plump and uniform grains were selected, soaked in lukewarm water at 25° C. for 6 hours, and accelerated to germinate in a 28° C. biochemical incubator (in darkness). The weed seeds that had just germinated were evenly placed on the surface of the soil and then covered with 0.5-1 cm soil according to the sizes of seeds.\n(§3) The culture was carried out in a controllable sunlight greenhouse at 20 to 30° C., in natural light, and with relative humidity of 57% to 72%.\n(§4) Each treatment was repeated 4 times. Four pots with 20 weed seeds sowed per pot were treated each time.\n(§5) The agents were used once in total in the experiment. In the stage of 1-2 leaves, the weeds were thinned out to maintain 10 strains per treatment for later use.\n(§6) The well-cultured test materials were evenly placed on a platform with an area of 0.5 m^2, and foliage spraying was carried out by the 3WP-2000-type walking spray tower at a dosage of 450 kg/ha and a spray pressure of 0.3 MPa. After all the solution was sprayed, the air valve was closed, and 30 seconds later, the door of the spray tower was opened, and the nutritional bowl was taken out. Then the air valve was opened, and the spray tube was cleaned by spraying 50 ml of water. The test materials were transferred to and routinely cultured in a greenhouse after the treatment.\n(§7) A method for investigating absolute numbers was employed. Whole seedlings of survival weeds were cut off with a blade along the soil surface, and the fresh weight of the weeds was weighed using an analytical balance. For dead weeds, the fresh weight thereof was zero.\n(§8) The investigation was performed 21 days after the treatment for once in total.\n(§9) The theoretical fresh weight inhibition rate of a mixed combination of each treatment was calculated by the Gowing method (E0=X+Y−X*Y/100). […] An optimal ratio was determined according to the actual control effects, characteristics of herbicides, and balance of the formulation. In the formula, X represents the fresh weight inhibition rate of the active ingredient A in a dosage of P; Y represents the fresh weight inhibition rate of the active ingredient B in a dosage of Q. The statistical results are shown in Table 4."}, "[2]": {"test_system": "Digitaria ischaemum", "test": "Activity test of compositions, soil sealing treatment (S)", "conditions": "21 days after treatment", "source_text": "as §1\nThe test soil was quantitatively filled to 3/4 of the pot, and then watered from the bottom of the pot to completely wet the soil to saturation. The test weed seeds were accelerated to just germinate, and then evenly and quantitatively sowed on the soil surface, covered with 0.5-1 cm soil according to the sizes of the seeds, and ready for use 72 hours after sowing.\nas §4\nas §6, with “well-sowed” for “well-cultured”, “water.” for “water. The test materials were transferred to and routinely cultured in a greenhouse after the treatment.”\nas §7, §8, §9"}, "[3]": {"test_system": "Echinochloa glabrescens", "test": "Activity test of compositions, soil sealing treatment (S)", "conditions": "21 days after treatment", "description": "as §1\n(§10) Weeds were cultivated in a controllable sunlight greenhouse at 20 to 30° C., in natural light, and with relative humidity of 57% to 72%. […] The test soil was quantitatively filled to 3/4 of the pot, and then watered from the bottom of the pot to completely wet the soil to saturation. The test weed seeds were accelerated to just germinate, and then evenly and quantitatively sowed on the soil surface, covered with 0.5-1 cm soil according to the sizes of the seeds, and ready for use 72 hours after sowing.\nas §4\nas §6, with “well-sowed” for “well-cultured”, “water.” for “water. The test materials were transferred to and routinely cultured in a greenhouse after the treatment.”\nas §7, §8, §9"}, "[4]": {"test_system": "Echinochloa crus-galli var. austrojaponensis", "test": "Activity test of compositions, early post-emergence foliage spray (F-EP)", "conditions": "21 days after treatment; for pest or weed control at 450 g/ha: Echinochloa crus-galli, 504 h, B alone 450 g a.i./ha, read-out: Control effect of B applied alone in a corresponding dose", "description": "as §1, §2, §3, §4, §5, §6, §7, §8, §9"}, "[5]": {"test_system": "Arivela viscosa", "test": "Activity test of compositions, soil sealing treatment (S)", "conditions": "21 days after treatment", "description": "as §1, §10, §4\nas §6, with “well-sowed” for “well-cultured”, “water.” for “water. The test materials were transferred to and routinely cultured in a greenhouse after the treatment.”\nas §7, §8, §9"}, "[6]": {"test_system": "Cyperus glomeratus", "test": "Activity test of compositions, soil sealing treatment (S)", "conditions": "B alone 7.5 g a.i./ha, 21 days after treatment", "description": "as §1, §10, §4\nas §6, with “well-sowed” for “well-cultured”, “water.” for “water. The test materials were transferred to and routinely cultured in a greenhouse after the treatment.”\nas §7, §8, §9"}, "[7]": {"test_system": "Cyperus glomeratus", "test": "Activity test of compositions, early post-emergence foliage spray (F-EP)", "conditions": "B alone 300 g a.i./ha, 21 days after treatment", "description": "as §1, §2, §3, §4, §5, §6, §7, §8, §9"}, "[8]": {"test_system": "Echinochloa glabrescens", "test": "Activity test of compositions, early post-emergence foliage spray (F-EP)", "conditions": "B alone 150 g a.i./ha, 21 days after treatment", "description": "as §1, §2, §3, §4, §5, §6, §7, §8, §9"}, "[9]": {"test_system": "Oxybasis glauca", "test": "Activity test of compositions, soil sealing treatment (S)", "conditions": "21 days after treatment", "description": "as §1, §10, §4\nas §6, with “well-sowed” for “well-cultured”, “water.” for “water. The test materials were transferred to and routinely cultured in a greenhouse after the treatment.”\nas §7, §8, §9"}, "[10]": {"conditions": "B alone 30 g a.i./ha (with A 60)"}}}
{"compound": "CC(C)CCCCCOC(=O)COc1ccc(Cl)cc1Cl", "note": "[2,4-D-isooctyl]", "values": [{"measurement": "Control effect of B applied alone in a corresponding dose", "setting": "[1]; B alone 225 g a.i./ha", "value": 61.4, "unit": "%"}]}
{"compound": "Cc1cc(Cl)ccc1OCC(=O)OCCCCCC(C)C", "note": "[MCPA-isooctyl]", "values": [{"measurement": "Control effect of B applied alone in a corresponding dose", "setting": "[1]; B alone 300 g a.i./ha", "value": 65, "unit": "%"}]}
{"compound": "CCOCN(C(=O)CCl)c1c(C)cccc1CC", "note": "[acetochlor]", "values": [{"measurement": "Control effect of B applied alone in a corresponding dose", "setting": "[2]; B alone 300 g a.i./ha", "value": 41.3}]}
{"compound": "COP(=S)(OC)SCC(=O)N(c1ccc(Cl)cc1)C(C)(C)C", "note": "[anilofos]", "values": [{"measurement": "Control effect of B applied alone in a corresponding dose", "setting": "[3]; B alone 75 g a.i./ha", "value": 37.2}]}
{"compound": "CCNc1nc(Cl)nc(NC(C)C)n1", "note": "[atrazine]", "values": [{"measurement": "pest or weed control at 450 g/ha", "setting": "[4]", "value": 43.4, "unit": "%"}]}
{"compound": "CC[C@H](Oc1ccc(F)c(C(F)(F)F)c1)C(=O)NCc1ccccc1", "note": "[beflubutamid-M]", "values": [{"measurement": "Control effect of B applied alone in a corresponding dose", "setting": "[5]; B alone 90 g a.i./ha", "value": 55.2, "unit": "%"}]}
{"compound": "COC(=O)c1ccccc1CS(=O)(=O)NC(=O)Nc1nc(OC)cc(OC)n1", "note": "[bensulfuronmethyl, bensulfuron-methyl]", "values": [{"measurement": "Control effect of B applied alone in a corresponding dose", "setting": "[6]", "value": 27.5, "unit": "%"}]}
{"compound": "CC(C)N1C(=O)c2ccccc2NS1(=O)=O", "note": "[bentazone]", "values": [{"measurement": "Control effect of B applied alone in a corresponding dose", "setting": "[7]", "value": 43.8}]}
{"compound": "CS(=O)(=O)c1ccc(C(=O)C2=C(Sc3ccccc3)C3CCC(C3)C2=O)c(Cl)c1", "note": "(centres unmarked) [benzobicyclon]", "values": [{"measurement": "Control effect of B applied alone in a corresponding dose", "setting": "[4]; B alone 60 g a.i./ha", "value": 48.7, "unit": "%"}]}
{"compound": "Cc1nn(C)cc1C(=O)Oc1c(C(=O)c2ccc(C(F)(F)F)cc2S(C)(=O)=O)c(C)nn1C", "note": "[bipyrazone]", "values": [{"measurement": "Control effect of B applied alone in a corresponding dose", "setting": "[4]; [10]", "value": 52.7, "unit": "%"}]}
{"compound": "CC1(C)CON(Cc2ccc(Cl)cc2Cl)C1=O", "note": "[bixlozone]", "values": [{"measurement": "Control effect of B applied alone in a corresponding dose", "setting": "[5]; B alone 120 g a.i./ha", "value": 74.5, "unit": "%"}]}
{"compound": "CCCCOCN(C(=O)CCl)c1c(CC)cccc1CC", "note": "[butachlor]", "values": [{"measurement": "Control effect of B applied alone in a corresponding dose", "setting": "[3]; B alone 300 g a.i./ha", "value": 41.3}]}
{"compound": "CCC(C)Nc1c([N+](=O)[O-])cc(C(C)(C)C)cc1[N+](=O)[O-]", "note": "(centres unmarked) [butralin]", "values": [{"measurement": "Control effect of B applied alone in a corresponding dose", "setting": "[2]; B alone 900 g a.i./ha", "value": 60.2}]}
{"compound": "Cc1ccc(NC(=O)N(C)C)cc1Cl", "note": "[chlorotoluron]", "values": [{"measurement": "pest or weed control at 450 g/ha", "setting": "[4]", "value": 37.6, "unit": "%"}]}
{"compound": "CC1(C)CON(Cc2ccccc2Cl)C1=O", "note": "[clomazone]", "values": [{"measurement": "Control effect of B applied alone in a corresponding dose", "setting": "[5]; B alone 75 g a.i./ha", "value": 70.6, "unit": "%"}]}
{"compound": "CCCCOC(=O)[C@@H](C)Oc1ccc(Oc2ccc(C#N)cc2F)cc1", "note": "[cyhalofop-butyl]", "values": [{"measurement": "Control effect of B applied alone in a corresponding dose", "setting": "[8]", "value": 46.6, "unit": "%"}]}
{"compound": "O=C(Nc1ccc(F)cc1F)c1cccnc1Oc1cccc(C(F)(F)F)c1", "note": "[diflufenican]", "values": [{"measurement": "Control effect of B applied alone in a corresponding dose", "setting": "[5]; B alone 52.5 g a.i./ha", "value": 65.8, "unit": "%"}]}
{"compound": "CCn1ncc(C(=O)c2ccc(S(C)(=O)=O)c(COCC(F)(F)F)c2Cl)c1OC(=O)c1cn(C)nc1C", "note": "[fenpyrazone]", "values": [{"measurement": "Control effect of B applied alone in a corresponding dose", "setting": "[4]; [10]", "value": 53.1, "unit": "%"}]}
{"compound": "CCN(C(=O)n1nnn(-c2ccccc2Cl)c1=O)C1CCCCC1", "note": "[fentrazamide]", "values": [{"measurement": "Control effect of B applied alone in a corresponding dose", "setting": "[3]; B alone 75 g a.i./ha", "value": 40.3}]}
{"compound": "COc1c(Cl)ccc(-c2nc(C(=O)OCc3ccccc3)c(Cl)c(N)c2F)c1F", "note": "[florpyrauxifenbenzyl, florpyrauxifen-benzyl]", "values": [{"measurement": "Control effect of B applied alone in a corresponding dose", "setting": "[1]; B alone 7.5 g a.i./ha", "value": 60.2, "unit": "%"}]}
{"compound": "Cc1ccn2nc(S(=O)(=O)Nc3c(F)cccc3F)nc2n1", "note": "[flumetsulam]", "values": [{"measurement": "Control effect of B applied alone in a corresponding dose", "setting": "[9]; B alone 15 g a.i./ha", "value": 57.9}]}
{"compound": "C#CCN1C(=O)COc2cc(F)c(N3C(=O)C4=C(CCCC4)C3=O)cc21", "note": "[flumioxazin]", "values": [{"measurement": "Control effect of B applied alone in a corresponding dose", "setting": "[9]; B alone 30 g a.i./ha", "value": 55.6}]}
{"compound": "Nc1c(Cl)c(F)nc(OCC(=O)O)c1Cl", "note": "[fluroxypyr]", "values": [{"measurement": "Control effect of B applied alone in a corresponding dose", "setting": "[1]; B alone 75 g a.i./ha", "value": 66.7, "unit": "%"}]}
